In general, Kd refers to the equilibrium constant for the complex coming apart. By IC50 is commonly meant the concentration needed to halve the response being measured.

Structures are written as SMILES. Some results are limits rather than exact numbers.

One test has as its target ASK1 (Homo sapiens (Human), UniProt Q99683). The test is described as follows: ASK1 KINOMEscan assay (biochemical Kd), competition binding. The following applies: DNA-tagged ASK1 kinase, 11-point 3-fold dilution. On the procedure: The binding of compounds to ASK1 were determined using DiscoverX's proprietary technology. […] The assay is performed by combining three components: DNA-tagged ASK1 kinase; immobilized ligand; and a test compound. The ability of the test compound to compete with the immobilized ligand is measured via quantitative PCR of the DNA tag. […] The liganded beads were blocked with excess biotin and washed with blocking buffer (SeaBlock (Pierce), 1% BSA, 0.05% Tween 20, 1 mM DTT) to remove unbound ligand and to reduce nonspecific binding. […] Kds were determined using an 11-point 3-fold compound dilution series with three DMSO control points. […] The compounds were then diluted directly into the assays such that the final concentration of DMSO was 0.9%. All reactions were performed in polypropylene 384-well plate. […] The kinase concentration in the eluates was measured by qPCR. Most Kds were determined using a compound top concentration=30,000 nM. […] Binding constants (Kds) were calculated with a standard dose-response curve using the Hill equation: Response=Background+{(Signal−Background)/[1+(Kd^Hill Slope/Dose^Hill Slope)]}, the Hill Slope was set to −1, and curves were fitted using a non-linear least square fit with the Levenberg-Marquardt algorithm.

Test [1] deals with phospho-p38 (downstream target of ASK1 activation) in HK-2 cells. The test is described as follows: HK-2 phospho-p38 HTRF assay (cellular IC50). Particulars: Homo sapiens, compound 2 h then 1 mM H2O2 30 min, phospho-T180/Y182 p38 HTRF, read-out: p38 MAPK IC50. Type of test: cell-based. On the procedure:
Monolayers of HK-2 cells were grown on 384-well plates at 8000 cells/well and incubated at 37° C. with 5% CO2/95% air in keratinocyte serum-free medium (Thermofisher, Carlsbad, Calif.) supplemented with recombinant human EGF (5 ng/mL) and bovine pituitary extract (50 μg/mL). 24 hours after seeding, cells were treated with test compounds for various concentrations for 2 hours and followed by 30 min treatment of H2O2 with final concentration of 1 mM. At the end of cell treatment, the cell medium was removed, and the cells were washed once with ice-cold PBS and subjected to measure the level of phosphor-p38 (downstream target of ASK1 activation) using Cisbio's P38 phospho-T180/Y182 HTRF kit from Cisbio (Cat. 64P38PEG). […] The compounds were then diluted directly into the assays such that the final concentration of DMSO was 0.4%. […] IC50 were calculated with a log (dose)-response curve using four parameter variable nonlinear fitting, with log(dose) in X-axis and (Em665/Em620×10000) ratio as Y-axis.
In general terms: TR-FRET usually uses a lanthanide donor and a delayed reading to cut background.

Sequence of ASK1 (Q99683 whole entry): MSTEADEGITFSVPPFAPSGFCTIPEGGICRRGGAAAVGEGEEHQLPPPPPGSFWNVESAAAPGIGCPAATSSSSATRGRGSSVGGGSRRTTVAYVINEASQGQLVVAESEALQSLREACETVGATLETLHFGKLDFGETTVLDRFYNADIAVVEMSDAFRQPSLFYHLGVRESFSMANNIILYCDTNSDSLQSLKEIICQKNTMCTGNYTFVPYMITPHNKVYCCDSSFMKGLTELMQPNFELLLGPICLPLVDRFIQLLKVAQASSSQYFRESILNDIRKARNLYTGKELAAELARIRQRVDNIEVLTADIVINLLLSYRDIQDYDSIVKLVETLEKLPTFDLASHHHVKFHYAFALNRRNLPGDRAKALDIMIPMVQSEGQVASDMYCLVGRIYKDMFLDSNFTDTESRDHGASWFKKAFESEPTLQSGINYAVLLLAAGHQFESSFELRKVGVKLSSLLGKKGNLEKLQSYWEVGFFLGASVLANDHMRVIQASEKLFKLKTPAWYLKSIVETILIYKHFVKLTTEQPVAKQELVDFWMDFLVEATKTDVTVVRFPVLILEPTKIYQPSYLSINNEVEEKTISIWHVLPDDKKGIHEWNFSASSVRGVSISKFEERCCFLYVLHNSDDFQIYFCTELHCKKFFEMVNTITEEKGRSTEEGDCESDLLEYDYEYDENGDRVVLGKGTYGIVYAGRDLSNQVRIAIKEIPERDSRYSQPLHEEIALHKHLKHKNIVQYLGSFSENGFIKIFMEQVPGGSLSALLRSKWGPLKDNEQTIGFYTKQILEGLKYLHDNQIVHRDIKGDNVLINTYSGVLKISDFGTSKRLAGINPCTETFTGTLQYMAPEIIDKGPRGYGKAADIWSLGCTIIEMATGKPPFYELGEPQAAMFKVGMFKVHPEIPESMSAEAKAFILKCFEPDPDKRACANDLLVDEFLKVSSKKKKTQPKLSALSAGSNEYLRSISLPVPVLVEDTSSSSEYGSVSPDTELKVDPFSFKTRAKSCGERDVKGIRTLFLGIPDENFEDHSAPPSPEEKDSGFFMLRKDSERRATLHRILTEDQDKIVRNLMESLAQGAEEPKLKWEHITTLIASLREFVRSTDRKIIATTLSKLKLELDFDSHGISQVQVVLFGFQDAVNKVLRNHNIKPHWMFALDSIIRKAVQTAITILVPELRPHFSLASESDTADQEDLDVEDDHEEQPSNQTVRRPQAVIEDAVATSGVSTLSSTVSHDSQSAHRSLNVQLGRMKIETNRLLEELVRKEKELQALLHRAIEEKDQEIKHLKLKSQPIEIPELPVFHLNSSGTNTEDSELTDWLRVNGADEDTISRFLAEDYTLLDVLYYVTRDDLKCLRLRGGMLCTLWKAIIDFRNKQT

`O=C1Nc2cccc(n2)-c2nncn2CCCCOc2ccc(-c3ccc(C(F)(F)F)nc3)cc21` [Example 40]: the Kd at ASK1 was less than 10 nM. In addition, the IC50 in test [1] is less than 100 nM.

`O=C1Nc2cccc(n2)-c2nncn2CCCCCOc2ccc(-c3ccc(C4CC4)nc3)cc21` [Example 19] yielded a dissociation constant (Kd) at ASK1 of 10 to 100 nM. Further, the IC50 in test [1] lay within 100 to 1000 nM.

`O=C1Nc2cccc(n2)-c2nncn2CCCCOc2ccc(-c3ccsc3)cc21` [Example 42] returned a Kd on ASK1 of less than 10 nM. The 50% inhibitory concentration (IC50) in test [1] is 100 to 1000 nM.

On ASK1, `O=C1Nc2cccc(n2)-c2nncn2CCCCOc2ccc(-c3ccc(C(F)F)nc3)cc21` [Example 52] gave a Kd of less than 10 nM. The concentration for half-maximal inhibition (IC50) in test [1] is less than 100 nM.

As to `Cc1ccc(-c2ccc3c(c2)C(=O)Nc2cccc(n2)-c2nncn2C(C)CCO3)cn1` (centres unmarked) [Example 67], the Kd at ASK1 was less than 10 nM. The IC50 in test [1] is less than 100 nM.

Take `O=C1Nc2cccc(n2)-c2nncn2CCCOc2ccc(-c3ccc(C4CC4)nc3)cc21` [Example 37]: the dissociation constant Kd at ASK1 was less than 10 nM. For the same compound, the IC50 in test [1] is less than 100 nM.

Take `O=C1Nc2cccc(n2)-c2nncn2CCCCOc2ccc(-n3cnc(C4CC4)c3)cc21` [Example 22]: the Kd on ASK1 was less than 10 nM. Besides, the IC50 in test [1] was less than 100 nM.

The compound `Cc1ccc(-c2ccc3c(c2)C(=O)Nc2cccc(n2)-c2nncn2C(C)CCCO3)cn1` (centres unmarked) [Example 56] came in with a dissociation constant (Kd) at ASK1 of less than 10 nM. The 50% inhibitory concentration (IC50) in test [1] was less than 100 nM.

As to `Cc1ccc(-c2ccc3c(c2)C(=O)Nc2cccc(n2)-c2nncn2CCCCO3)cn1` [Example 24], the Kd on ASK1 was less than 10 nM. For the same compound, the IC50 in test [1] was less than 100 nM.

Regarding `O=C1Nc2cccc(n2)-c2nncn2CCCCOc2ccc(-c3ccc(F)nc3)cc21` [Example 39], the dissociation constant (Kd) at ASK1 was less than 10 nM. Moreover, in test [1], the IC50 is less than 100 nM.

Turning to `CC1(C)Cc2cc3c(cc2O1)C(=O)Nc1cccc(n1)-c1nncn1CCCCO3` [Example 30], the Kd at ASK1 was less than 10 nM. The half-inhibitory concentration (IC50) in test [1] is less than 100 nM.

The compound `CCc1ccc(-c2ccc3c(c2)C(=O)Nc2cccc(n2)-c2nncn2CCCCO3)cn1` [Example 47] gave a dissociation constant (Kd) on ASK1 of less than 10 nM. Further, in test [1], the IC50 is less than 100 nM.

`Cc1ccc(-c2ccc3c(c2)C(=O)Nc2cccc(n2)-c2nncn2CCCOC3)cn1` [Example 70] displayed a dissociation constant (Kd) on ASK1 of less than 10 nM. The concentration for half-maximal inhibition (IC50) in test [1] is less than 100 nM.

`O=C1Nc2cccc(n2)-c2nncn2CCCCOc2ccc(C3CC3)cc21` [Example 46] returned a Kd on ASK1 of less than 10 nM. Besides, the half-inhibitory concentration (IC50) in test [1] was in the range of 100 to 1000 nM.

`Cc1cc2c(cc1-n1cnc(C3CC3)c1)C(=O)Nc1cccc(n1)-c1nncn1CCCCO2` [Example 61] showed an equilibrium dissociation constant (Kd) at ASK1 of less than 10 nM. In addition, the half-maximal inhibitory concentration (IC50) in test [1] was less than 100 nM.

On ASK1, `O=C1Nc2cccc(n2)-c2nncn2CCCCOc2ccc(-c3ccc(Cl)nc3)cc21` [Example 54] gave a Kd of less than 10 nM. For the same compound, the IC50 in test [1] is less than 100 nM.

As to `Cc1ccc(-c2ccc3c(c2)C(=O)Nc2cccc(n2)-c2nncn2C2CC(CO3)C2)cn1` [Example 69], in test [1], the half-inhibitory concentration (IC50) was less than 100 nM.

`CC1CCCOc2ccc(-c3ccc(C4CC4)nc3)cc2C(=O)Nc2cccc(n2)-c2nncn21` (centres unmarked) [Example 50] showed a Kd at ASK1 of less than 10 nM. In addition, the IC50 in test [1] is less than 100 nM.

As to `Cc1ccc(-c2ccc3c(c2)C(=O)Nc2cccc(n2)-c2nncn2C2CCC(CC2)O3)cn1` [Example 71], the 50% inhibitory concentration (IC50) in test [1] was less than 100 nM.

`O=C1Nc2cccc(n2)-c2nncn2CCCOc2ccc(-n3cnc(C4CC4)c3)cc21` [Example 66] returned a Kd on ASK1 of less than 10 nM. Moreover, the IC50 in test [1] is 100 to 1000 nM.

The compound `O=C1Nc2cccc(n2)-c2nncn2CCCCOc2ccc(-c3ccc(C4CC4)nc3)cc21` [Example 23] gave a Kd on ASK1 of less than 10 nM. For the same compound, the IC50 in test [1] is 100 to 1000 nM.

`O=C1Nc2cccc(n2)-c2nncn2CCCCOc2ccc(N3CCOCC3)cc21` [Example 43]: in test [1], the IC50 was less than 100 nM.

On to `Cn1cc(-c2ccc3c(c2)C(=O)Nc2cccc(n2)-c2nncn2CCCCO3)cn1` [Example 48], for which the IC50 in test [1] was less than 100 nM.

`N#Cc1ccc(-c2ccc3c(c2)C(=O)Nc2cccc(n2)-c2nncn2CCCCO3)cn1` [Example 63] displayed a dissociation constant (Kd) at ASK1 of less than 10 nM. Also, in test [1], the IC50 is 100 to 1000 nM.

For `Cc1ncc(-c2ccc3c(c2)C(=O)Nc2cccc(n2)-c2nncn2CCCCO3)cc1Cl` [Example 75], the dissociation constant Kd at ASK1 lay in the range of 10 to 100 nM.

`O=C1Nc2cccc(n2)-c2nncn2CCCOc2ccc(-c3ccccc3)cc21` [Example 57]: the dissociation constant (Kd) on ASK1 lay within 10 to 100 nM.

Consider `O=C1Nc2cccc(n2)-c2nncn2CCCCOc2ccc(Cl)cc21` [Example 41], for which the Kd on ASK1 lay within 10 to 100 nM.

`O=C1Nc2cccc(n2)-c2nncn2CCCCOc2ccc(-c3ccccc3)cc21` [Example 38] gave a Kd at ASK1 of less than 10 nM. Further, the IC50 in test [1] was less than 100 nM.

As for `COc1ccc2c(c1)C(=O)Nc1cccc(n1)-c1nncn1CC=CC2` [Example 94], the Kd on ASK1 was greater than 1000 nM.

Source of the values: patent US11034671B2, “Apoptosis signal-regulating kinase inhibitors and uses thereof” (SICHUAN HAISCO PHARMACEUTICAL CO., LTD., priority 2017, dated 2021).
